Assay results: patent publication US20220387412A1, “Novel Superebastine Against Therapy Resistant Prostate Cancer” (University of Kentucky Research Foundation, priority 2019, published 2022)
“Also recorded” adds a separate entry of the source.

Experiments:
Assay type in all cases: cell-based
PC-3 cells = assay: Resazurin cell viability assay, PC-3; conditions: for cell viability (resazurin): PC-3, 10 μM
Description: (§1) Mean+SD shown. (*) Asterisk indicates […] by the Student's t-test.
(§2) Cell viability was then measured by resazurin assays. […] On the other hand, Super-EBS (10 μM) was effective in 24 hours. […] Mean+SD are shown. P<0.01 by Student's t-test.

[1] = tested on: CWR22Rv1 ENZ-sensitive cells; assay: Resazurin cell viability assay, CWR22Rv1 ENZ-sensitive; conditions: CWR22Rv1 ENZ-sensitive, 24, 48 and 72 hours
Description: as §1, §2

[2] = tested on: CWR22Rv1 ENZ-resistant cells; assay: Resazurin cell viability assay, CWR22Rv1 ENZ-resistant; conditions: CWR22Rv1 ENZ-resistant, 24, 48 and 72 hours
Description: as §1, §2

prostate cancer cells = assay: Growth inhibition / cell death of prostate cancer cell cultures; conditions: for cell death: within 24 h
Description: RAGE activation promotes proliferation, invasive bone homing, and metastasis of PCa cells.

[3] = tested on: CWR22Rv1 ENZ-sensitive cells; assay: ICC for active caspase 3 (apoptosis), CWR22Rv1 ENZ-sensitive; conditions: 0.1-5 μM, 24 hours
Description: (§3) FIGS. 5A-B show images and graphs illustrating that Super-EBS causes cell death by the activation of an apoptotic cascade. (A) AR-v7 expressing CwR22Rv1 and CwR22Rv1 Enz(R) cells were treated with Super-EBS (0.1-5 μM) in 10% FBS for 24 h and tested by ICC analysis for cleaved caspase 3 (green) and DAPI (blue). (B) Quantitative representation of ICC data. *P<0.05; **P<0.01 by Student's t test.
(§4) After determining that the cells were sensitive to Super-EBS, they were tested to determine whether Super-EBS inhibited cell viability by inducing apoptosis. CWR22Rv1 ENZ-sensitive and CWR22Rv1 ENZ-resistant cell lines were treated with vehicle, 0.1-, 0.5-, 1- and 5-μM of Super-EBS for 24 hours. The cells were then subjected to immunocytochemical (ICC) analysis for active caspase 3 (green fluorescence) to detect apoptotic cells, and 4, 6-diamidino-2-phenylindole (DAPI) staining (blue fluorescence) to reveal the cell nucleus. Cells were scored for apoptosis under a confocal microscope and percent apoptosis was calculated. […] Mean+SD are shown. P<0.01 by Student's t-test.
(§5) Super-EBS causes cell death by the activation of an apoptotic cascade. […] CwR22Rv1 Enz(R) cells were also tested with Super-EBS for 24 h and subjected to FACS analysis using Annexin V and propidium iodide (PI) staining.

[4] = tested on: CWR22Rv1 ENZ-resistant cells; assay: ICC for active caspase 3 (apoptosis), CWR22Rv1 ENZ-resistant; conditions: 0.1-5 μM, 24 hours
Description: as §3, §4, §5

CwR22Rv1 Enz(R) cells = assay: Annexin V-PI staining and FACS analysis for apoptotic cells; conditions: 2 or 4 μM, 24 h
Description: CwR22Rv1 Enz(R) cells were treated with Super-EBS (2 or 4 μM) for 24 h in 10% FBS containing medium. Live cells were subjected to Annexin V-PI staining and FACS analysis for apoptotic cells. The percentage on the figure indicates the percentage of cells post treatment.
as §5

C4-2 cells = assay: Western blot for γH2AX (Ser139), DNA double stranded breaks, C4-2; conditions: C4-2, 0.5 or 1 μM, 24 h
Description: (§6) FIGS. 7A-B show images illustrating that Super-EBS induces DNA damage in AR-positive prostate cancer cells. (A) C4-2 cells were treated with Super-EBS (0.5 or 1 μM) for 24 h in 10% FBS containing medium. […] Lysates were probed for YH2AX (Ser139 phosphorylation), a marker for DSB by Western blot analysis.
(§7) Super-EBS induces DNA damage in AR-positive prostate cancer cells. Lysates from AR-positive androgen-independent C4-2 cells (FIG. 7A) or androgen-dependent LNCaP cells (FIG. 7B) were treated with Super-EBS and subjected to Western blot analysis for γH2AX (Ser 139) positivity to detect DNA double stranded breaks (DSB). Super-EBS induced DSBs in both C4-2 and LNCaP cells (FIGS. 7A-B).

LNCaP cells = assay: Western blot for γH2AX (Ser139), DNA double stranded breaks, LNCaP; conditions: 0.25 or 0.5 μM, 24 h
Description: as §6, §7

[5] = tested on: C4-2, C4-2R, LNCaP and M49C cells; assay: Resazurin cell viability assay, AR-positive cells and drug resistant counterparts; conditions: 24 h, 10% FBS
Description: FIGS. 4A-B show graphs illustrating viability of androgen independent and androgen dependent cells treated with Super-EBS. (A) Androgen independent AR-positive C4-2 and C4-2R were treated with Super-EBS and vehicle control for 24 h in 10% FBS. Cell viability was measured by Resazurin assay. (B) Androgen dependent AR-positive LNCaP and M49C were treated under same condition and cell viability by Resazurin assay. *P<0.05; ** P<0.01 by the Student's t test.
In particular, cell viability of the AR-positive prostate cancer cells and their drug resistant counterparts was lower for the cells treated with Super-EBS.

[6] = tested on: CwR22Rv1 Par-4 knock-down cells; assay: γH2AX ICC / Western blot in Par-4 wild type and knock-down cells; conditions: CwR22Rv1, 0.25 μM, 24 h
Description: FIGS. 8A-B show images illustrating that DNA damage induced by Super-EBS is mediated by Par-4. (A) CwR22Rv1 Par-4 wild type and knock-down cells were treated with Super-EBS (0.25 μM) for 24 h in medium containing 10% FBS, and then subjected to ICC for Par-4 (green) or YH2AX (Ser139) (red). (B) Western blot analysis for YH2AX, Par-4 and GAPDH was performed on lysates of Par-4 wild type (left) and knock-down (right) prostate cancer cells treated with Super-EBS (0.25 μM) for 24 h.
DNA damage induced by Super-EBS is mediated by Par-4.

Structure (SMILES)	cell viability (resazurin) (PC-3 cells; 24 hours)	cell viability (resazurin), effective concentration (PC-3 cells; PC-3, 24, 48 and 72 hours)	cell viability (resazurin), effective concentration [1]	cell viability (resazurin), effective concentration [2]	concentration inducing apoptosis and growth inhibition (prostate cancer cells; ENZ-resistant as well as ENZ-sensitive prostate cancer cells)	cell death (prostate cancer cells; ENZ-resistant prostate cancer cell cultures)	cell death (prostate cancer cells; ENZ-sensitive prostate cancer cell cultures)	potency in killing cells compared with EBS (prostate cancer cells; parental and ENZ-resistant prostate cancer cell lines)	apoptosis (active caspase 3 ICC) relative to vehicle control [3]	apoptosis (active caspase 3 ICC) relative to vehicle control [4]	cells in the early and late stages of apoptosis (Annexin V/PI FACS) (CwR22Rv1 Enz(R) cells)	DNA double stranded breaks (γH2AX Ser139) (C4-2 cells)	DNA double stranded breaks (γH2AX Ser139) (LNCaP cells)	cytotoxic effect compared with EBS ([5]; 10 μM)	susceptibility of LNCaP and M49C versus C4-2 and C4-2R to cytotoxic action [5]	γH2AX positivity after Par-4 knock-down [6]	cell viability (resazurin) (PC-3 cells; 72 hours)
CC(C)(C)c1ccc(/C(CCCN2CCC(OC(c3ccccc3)c3ccccc3)CC2)=N\C(=N)N)cc1 [Super-EBS]	effective	effective at nanomolar concentrations	effective at nanomolar concentrations	effective at nanomolar concentrations	nanomolar concentrations	95-98%	95-98%	more potent than EBS	significantly higher levels; also recorded: dose dependent increase in apoptotic cells	significantly higher levels; also recorded: dose dependent increase in apoptotic cells	dose dependent increase	induced DSBs	induced DSBs	more pronounced than EBS	more susceptible	decrease in the YH2AX positivity	–
CC(C)(C)c1ccc(C(=O)CCCN2CCC(OC(c3ccccc3)c3ccccc3)CC2)cc1 [EBS, 4-[4-(Diphenylmethoxy)-1-piperidinyl]-1-[4-(2-methyl-2-propanyl)phenyl]-1-butanone, reference compound]	–	–	–	–	–	–	–	–	–	–	–	–	but not EBS induced significant amount of DSBs	–	–	–	sensitive
